Laboratory results reported in patent publication US20160045513A1, “ISOXAZOLE COMPOUND FOR THE TREATMENT OF CANCER” (Novartis AG, priority 2007, published 2016).

Experiments:
Test in all cases: cell proliferation, tumor derived cell lines
Type in all cases: cell-based
HCT116 = settings: Homo sapiens, HCT-116, Colon, 72 or 96 hours exposure
Procedure: (§1) Thirty-seven cancer derived cell lines are used (BT474, MDA-MB-361, MDA-MB-453, SKBr3, T47D, MCF7, MDA-MB-231, MDA-MB-468, SK-MEL-5, A375, MALME-3M, SK-MEL-28, WM266.4, RPMI8226, U266, BE, Colo205, HCT116, HT29, MAWI, RKO, U87MG, HN5, RPMI-8226, A549, MV522, NCI-H1299, NCI-H460, 41M, A2780, CHI, NCI-N87, SKOV3, PC3, MO7e, GIST882 and Baf3) to test the effect of 5-(2,4-Dihydroxy-5-isopropyl-phenyl)-4-(4-morpholin-4-ylmethyl-phenyl)-isoxazole-3-carboxylic acid ethylamide. Cell lines are commercially available from American Type Culture Collection (ATCC). These cell lines cover the following 12 cancer or tumor types: breast, melanoma, multiple myeloma (MM), colon, glioblastoma, head & neck, leukemia, lung, ovarian, prostate, stomach and gastrointestinal stromal tumour (GIST). After division and medium change, cells from stock culture are seeded on cell plates and cultured for about 18 hours to allow cell growth and attachment before starting the assay. On the first day of the assay, 5-(2,4-Dihydroxy-5-isopropyl-phenyl)-4-(4-morpholin-4-ylmethyl-phenyl)-isoxazole-3-carboxylic acid ethylamide is added to the medium at various concentrations up to […]. Cells are cultured up to 72 or 96 hours and cell proliferation is determined using commercially available cell proliferation kits.
(§2) The cells were continually exposed to 5-(2,4-Dihydroxy-5-isopropyl-phenyl)-4-(4-morpholin-4-ylmethyl-phenyl)-isoxazole-3-carboxylic acid ethylamide for either 72 or 96 hours and cell growth was determined by commercially available kits based on either SRB, Alamar blue, methylene blue or WST-1 methods.

U266 = settings: Homo sapiens, U-266, Multiple myeloma (MM), 72 or 96 hours exposure
Procedure: as §1, §2

HN5 = settings: Homo sapiens, Head & Neck, 72 or 96 hours exposure
Procedure: as §1, §2

A549 = settings: Homo sapiens, Lung, 72 or 96 hours exposure
Procedure: as §1, §2

U87MG = settings: Homo sapiens, U-87 MG, Glioblastoma, 72 or 96 hours exposure
Procedure: as §1, §2

MDA-MB-453 = settings: Homo sapiens, Breast, 72 or 96 hours exposure
Procedure: as §1, §2

MO7e = settings: 72 or 96 hours exposure
Procedure: as §1, §2

A2780 = settings: Homo sapiens, Ovarian, 72 or 96 hours exposure
Procedure: as §1, §2

MV522 = settings: Lung, 72 or 96 hours exposure
Procedure: as §1, §2

NCI-H1299 = settings: Homo sapiens, Lung, 72 or 96 hours exposure
Procedure: as §1, §2

Baf3 = settings: Mus musculus, Gastrointestinal stromal tumour (GIST), 72 or 96 hours exposure
Procedure: as §1, §2

RPMI-8226 = settings: Homo sapiens, Leukemia, 72 or 96 hours exposure
Procedure: as §1, §2

SK-MEL-28 = settings: Homo sapiens, Melanoma, 72 or 96 hours exposure
Procedure: as §1, §2

SKBr3 = settings: Homo sapiens, SK-BR-3, Breast, 72 or 96 hours exposure
Procedure: as §1, §2

MDA-MB-361 = settings: Homo sapiens, Breast, 72 or 96 hours exposure
Procedure: as §1, §2

T47D = settings: Homo sapiens, Breast, 72 or 96 hours exposure
Procedure: as §1, §2

41M = settings: Homo sapiens, Ovarian, 72 or 96 hours exposure
Procedure: as §1, §2

MALME-3M = settings: Homo sapiens, Melanoma, 72 or 96 hours exposure
Procedure: as §1, §2

SKOV3 = settings: Homo sapiens, SK-OV-3, Ovarian, 72 or 96 hours exposure
Procedure: as §1, §2

MDA-MB-231 = settings: Homo sapiens, Breast, 72 or 96 hours exposure
Procedure: as §1, §2

GIST882 = settings: Homo sapiens, Gastrointestinal stromal tumour (GIST), 72 or 96 hours exposure
Procedure: as §1, §2

CH1 = settings: Homo sapiens, Ovarian, 72 or 96 hours exposure
Procedure: as §1, §2

BT474 = settings: Homo sapiens, BT-474, Breast, 72 or 96 hours exposure
Procedure: as §1, §2

MCF7 = settings: Homo sapiens, Breast, 72 or 96 hours exposure
Procedure: as §1, §2

MAWI = settings: Colon, 72 or 96 hours exposure
Procedure: as §1, §2

Colo205 = settings: Homo sapiens, COLO 205, Colon, 72 or 96 hours exposure
Procedure: as §1, §2

RKO = settings: Homo sapiens, Colon, 72 or 96 hours exposure
Procedure: as §1, §2

NCI-N87 = settings: Homo sapiens, Stomach, 72 or 96 hours exposure
Procedure: as §1, §2

MDA-MB-468 = settings: Homo sapiens, Breast, 72 or 96 hours exposure
Procedure: as §1, §2

PC3 = settings: Homo sapiens, PC-3, Prostate, 72 or 96 hours exposure
Procedure: as §1, §2

WM266.4 = settings: Homo sapiens, WM 266-4, Melanoma, 72 or 96 hours exposure
Procedure: as §1, §2

A375 = settings: Homo sapiens, A-375, Melanoma, 72 or 96 hours exposure
Procedure: as §1, §2

IC50 (HCT116): 16 nM
IC50 (U266): 23.3 nM
IC50 (HN5): 8 nM
IC50 (A549): 11.7 nM
IC50 (U87MG): 6 nM
IC50 (MDA-MB-453): 3.9 nM
IC50 (MO7e): 10.6 nM
IC50 (A2780): 6.1 nM
IC50 (MV522): 8.1 nM
IC50 (NCI-H1299): 5.7 nM
IC50 (Baf3): 22.4 nM
IC50 (RPMI-8226): 6.3 nM
IC50 (SK-MEL-28): 8 nM
IC50 (SKBr3): 2.3 nM
IC50 (MDA-MB-361): 6 nM
IC50 (T47D): 2.6 nM
IC50 (41M): 3 nM
IC50 (MALME-3M): 7.7 nM
IC50 (SKOV3): 3.7 nM
IC50 (MDA-MB-231): 7.7 nM
IC50 (GIST882): 6.2 nM
IC50 (CH1): 2.8 nM
IC50 (BT474): 2.8 nM
IC50 (MCF7): 2.3 nM
IC50 (MAWI): 50 nM
IC50 (Colo205): 6.2 nM
IC50 (RKO): 3.1 nM
IC50 (NCI-N87): 0.2 nM
IC50 (MDA-MB-468): 3.5 nM
IC50 (PC3): 5 nM
IC50 (WM266.4): 6.2 nM
IC50 (A375): 3 nM
Structure (SMILES): CCNC(=O)c1noc(-c2cc(C(C)C)c(O)cc2O)c1-c1ccc(CN2CCOCC2)cc1 [AUY922, 5-(2,4-Dihydroxy-5-isopropyl-phenyl)-4-(4-morpholin-4-ylmethyl-phenyl)-isoxazole-3-carboxylic acid ethylamide]
